Patent US6420558B1, “Aminopiperidine derivates as integrin αvβ3 antagonists” (Meiji Seika Kaisha, Ltd., priority 1998, dated 2002)

Tests used:
GP IIb/IIIa = GP IIb/IIIa (Homo sapiens, UniProt P05106+P08514); assay: GP IIb/IIIa antagonistic activity (method of Pharmacological Test 2 in WO 94/21599); format: binding
Protocol: GP IIb/IIIa Antagonistic Activity and Human Platelet Aggregation Inhibitory Activity
GP IIb/IIIa antagonistic activity was measured for the compounds according to the present invention. The measurement of the GP IIb/IIIa antagonistic activity was carried out according to the method described in Pharmacological Test 2 in WO 94/21599.

[1] = Acute toxicity test in mice; format: in vivo; conditions: intravenously administered to three mice at a dose of 50 mg/kg
Protocol: The compound of Example 52 was intravenously administered to three mice at a dose of 50 mg/kg.

[2] = system: human vascular smooth muscle cells adhering to immobilized human vitronectin; assay: Inhibitory activity against adhesion of human vascular smooth muscle cells to vitronectin; format: cell-based; conditions: 1.5 h; human vitronectin-coated plate, 90 min
Protocol: Inhibitory Activity Against Adhesion of Human Vascular Smooth Muscle Cells to Vitronectin
The adhesion of human vascular smooth muscle cells =+to immobilized human vitronectin was measured in accordance with the method of Liaw et al. (Liaw L, Almeida M, Hart C E, Schwartz S M, and Giachelli C M, Circulation Research, 74 (2), 214-224 (1994)).
A Dulbecco's phosphate buffer (Dulbecco's PBS(−), Nissui Pharmaceutical Co., Ltd.) solution of human plasma-derived vitronectin (CALBIOCHEM) adjusted to a concentration of 4 μg/ml was first added to wells (50 μl/well) of a microplate (Maxisorp, Nunc), and a reaction for immobilization was allowed to proceed at 4° C. overnight. After washing twice with 150 μl of Dulbecco's phosphate buffer, a Dulbecco's phosphate buffer containing 10 mg/ml of bovine serum albumin (SIGMA) was added, followed by blocking at 37° C. for one hr. The assay plate was washed twice with 150 μl of Dulbecco's phosphate buffer.
Separately, human vascular smooth muscle cells cultivated at 37° C. under 5% carbon dioxide in a medium for vascular smooth muscle cells (Clonetics) were separated using a Dulbecco's phosphate buffer containing trypsin-EDTA (GIBCO BRL), washed with Dulbecco's phosphate buffer, and then suspended in a Dulbecco's modified Eagle's basal medium (Nissui Pharmaceutical Co., Ltd.) containing 0.1% bovine serum albumin to a concentration of 5×10^5/ml.
Next, 50 μl of a Dulbecco's modified Eagle's basal medium containing 10 mg/ml of bovine serum albumin with a medicament added thereto was added to the wells of the human vitronectin-coated assay microplate, followed by pre-cultivation under 5% carbon dioxide at 37° C. for 10 min. Thereafter, 50 μl of the medium with human vascular smooth muscle cells suspended therein was added thereto, and the plate was thoroughly stirred. A reaction was allowed to proceed under 5% carbon dioxide at 37° C. for 90 min. The reaction solution containing non-adherent cells were then removed, followed by washing three times with Dulbecco's phosphate buffer. For the adhered cells, 100 μl of a Dulbecco's phosphate buffer containing 4% paraformaldehyde (Wako Pure Chemical Industries, Ltd.) was added, and immobilization was allowed to proceed at room temperature for 10 min. Next, 100 μl of a Dulbecco's phosphate buffer containing 0.5% Toluidine Blue (Croma) and 4% paraformaldehyde was added, and staining was allowed to proceed at room temperature for 5 min, followed by thorough washing with distilled water. The inside of the wells was then air-dried, and a 1% aqueous sodium dodecylsulfate solution was then added to perform cytolysis. The absorbance of the microplate thus obtained was measured at 595 nm. […] The inhibition was calculated by the following equation. IC50 was determined from a primary regression line of the logarithm of each concentration of the test compound and the logarithm of (100−inhibition)/inhibition. [formula]

[3] = target: T1, integrin αvβ3 (vitronectin receptor purified from the human placenta) (Homo sapiens, UniProt P05106+P06756); assay: αvβ3 binding assay (vitronectin-vitronectin receptor binding assay); conditions: vitronectin binding to human placenta vitronectin receptor; read-out: integrin αvβ3 antagonistic activity, IC50 value
T1 construct: a vitronectin receptor (protein content: 118 μg/ml) purified from the human placenta; from tissue; host or cells: human placenta
T1 sequence (P06756 31-889 limits assumed): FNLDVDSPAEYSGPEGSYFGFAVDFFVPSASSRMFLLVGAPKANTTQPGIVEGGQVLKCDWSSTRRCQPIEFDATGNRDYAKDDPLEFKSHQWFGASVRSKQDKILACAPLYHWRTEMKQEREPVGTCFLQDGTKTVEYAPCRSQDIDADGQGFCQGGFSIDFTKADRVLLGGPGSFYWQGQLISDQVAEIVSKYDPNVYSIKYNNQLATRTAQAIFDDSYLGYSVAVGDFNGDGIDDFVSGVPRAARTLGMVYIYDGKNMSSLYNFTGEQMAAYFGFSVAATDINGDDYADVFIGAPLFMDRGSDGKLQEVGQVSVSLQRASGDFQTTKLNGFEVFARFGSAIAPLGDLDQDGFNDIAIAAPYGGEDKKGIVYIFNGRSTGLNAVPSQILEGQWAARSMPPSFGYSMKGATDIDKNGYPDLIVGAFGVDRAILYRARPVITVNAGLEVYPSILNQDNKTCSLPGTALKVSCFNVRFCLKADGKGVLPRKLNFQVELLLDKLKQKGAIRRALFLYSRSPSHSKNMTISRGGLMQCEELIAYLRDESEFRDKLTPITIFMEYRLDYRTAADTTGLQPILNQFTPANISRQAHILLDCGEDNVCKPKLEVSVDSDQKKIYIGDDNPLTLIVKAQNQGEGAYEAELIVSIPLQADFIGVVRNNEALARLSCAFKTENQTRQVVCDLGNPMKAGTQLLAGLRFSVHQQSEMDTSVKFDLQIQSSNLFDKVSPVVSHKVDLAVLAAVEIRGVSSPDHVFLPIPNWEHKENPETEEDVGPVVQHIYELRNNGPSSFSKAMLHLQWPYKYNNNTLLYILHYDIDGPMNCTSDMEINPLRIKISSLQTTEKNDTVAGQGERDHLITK
T1 sequence (P06756 891-1048 limits assumed): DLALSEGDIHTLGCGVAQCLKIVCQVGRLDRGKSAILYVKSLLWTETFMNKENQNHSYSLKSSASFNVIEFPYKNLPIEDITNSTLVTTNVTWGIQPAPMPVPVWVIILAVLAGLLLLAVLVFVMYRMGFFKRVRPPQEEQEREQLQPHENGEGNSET
T1 sequence (P05106 27-788): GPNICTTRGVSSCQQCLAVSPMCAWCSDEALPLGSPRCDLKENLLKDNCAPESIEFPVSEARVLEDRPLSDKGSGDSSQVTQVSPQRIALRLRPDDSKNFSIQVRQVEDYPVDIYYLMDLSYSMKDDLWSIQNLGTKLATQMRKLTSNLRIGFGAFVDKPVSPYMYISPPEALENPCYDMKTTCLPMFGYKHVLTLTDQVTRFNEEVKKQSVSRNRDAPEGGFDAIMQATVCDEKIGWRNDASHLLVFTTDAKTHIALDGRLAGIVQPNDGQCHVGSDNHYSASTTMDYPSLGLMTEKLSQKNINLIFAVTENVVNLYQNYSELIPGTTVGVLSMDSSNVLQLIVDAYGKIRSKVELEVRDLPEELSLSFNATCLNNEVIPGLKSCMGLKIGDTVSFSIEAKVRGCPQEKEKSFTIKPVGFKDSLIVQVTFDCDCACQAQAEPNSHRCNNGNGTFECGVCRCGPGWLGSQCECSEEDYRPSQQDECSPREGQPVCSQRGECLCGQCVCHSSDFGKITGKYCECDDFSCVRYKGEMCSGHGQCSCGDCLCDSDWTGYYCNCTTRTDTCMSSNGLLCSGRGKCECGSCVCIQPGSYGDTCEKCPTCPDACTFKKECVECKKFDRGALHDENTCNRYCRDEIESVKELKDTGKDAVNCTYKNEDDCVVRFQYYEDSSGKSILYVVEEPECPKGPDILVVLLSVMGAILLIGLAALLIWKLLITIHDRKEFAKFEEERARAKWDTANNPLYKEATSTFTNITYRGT

GP IIb/IIIa, sequence (P08514 32-887 limits assumed): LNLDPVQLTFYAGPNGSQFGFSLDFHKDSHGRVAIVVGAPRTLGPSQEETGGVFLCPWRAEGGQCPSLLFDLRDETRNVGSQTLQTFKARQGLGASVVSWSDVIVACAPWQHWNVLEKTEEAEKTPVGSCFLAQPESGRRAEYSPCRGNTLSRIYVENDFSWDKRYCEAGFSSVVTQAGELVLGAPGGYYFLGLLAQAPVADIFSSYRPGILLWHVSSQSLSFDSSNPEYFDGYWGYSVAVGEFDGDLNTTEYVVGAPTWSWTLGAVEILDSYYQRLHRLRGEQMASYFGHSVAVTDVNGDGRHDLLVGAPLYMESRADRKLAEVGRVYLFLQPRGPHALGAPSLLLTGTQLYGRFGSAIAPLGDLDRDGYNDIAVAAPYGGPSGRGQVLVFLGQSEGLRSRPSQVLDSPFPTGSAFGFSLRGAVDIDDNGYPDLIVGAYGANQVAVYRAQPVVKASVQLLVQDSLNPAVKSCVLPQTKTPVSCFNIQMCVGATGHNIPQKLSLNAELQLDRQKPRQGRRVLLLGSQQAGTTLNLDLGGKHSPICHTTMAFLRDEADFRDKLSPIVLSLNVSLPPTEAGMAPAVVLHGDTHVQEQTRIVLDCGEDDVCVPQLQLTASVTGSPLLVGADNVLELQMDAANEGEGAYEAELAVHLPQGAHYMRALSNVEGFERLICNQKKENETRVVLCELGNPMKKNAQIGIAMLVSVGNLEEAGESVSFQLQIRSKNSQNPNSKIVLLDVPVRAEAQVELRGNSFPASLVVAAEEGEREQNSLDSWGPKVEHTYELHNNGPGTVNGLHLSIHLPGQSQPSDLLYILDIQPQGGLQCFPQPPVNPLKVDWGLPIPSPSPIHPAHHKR
GP IIb/IIIa, sequence (P08514 891-1039 limits assumed): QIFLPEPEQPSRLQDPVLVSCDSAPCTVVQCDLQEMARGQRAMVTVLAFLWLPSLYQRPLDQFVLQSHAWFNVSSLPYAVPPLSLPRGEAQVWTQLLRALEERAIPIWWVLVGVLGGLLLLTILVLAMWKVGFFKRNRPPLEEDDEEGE
GP IIb/IIIa, sequence (P05106 27-788): as the sequence (P05106 27-788) above

O=C(NC[C@H](NS(=O)(=O)c1ccccc1)C(=O)O)c1ccc(N2CCC(NC3=NCCCN3)CC2)c(F)c1 [Example 52, (2S)-Benzenesulfonylamino-3-[3-fluoro-4-{4-(1,4,5,6-tetrahydropyrimidin-2-ylamino)piperidin-1-yl}-benzoylamino]propionic acid]
IC50 (GP IIb/IIIa): ≤ 1 nM
survival in acute toxicity test [1]: all the mice survived
change in weight in acute toxicity test ([1]; compared with solvent group): the same as a group of mice to which only a solvent had been administrered
IC50 [2]: ≤ 70 nM
IC50 [3]: ≤ 1 nM
